Key:
UGT1A1 = target: T1, UGT1A1 (Homo sapiens, UniProt P22309); experiment: enzyme inhibition in vitro; type: in vitro ADME
T1 sequence (P22309 26-533): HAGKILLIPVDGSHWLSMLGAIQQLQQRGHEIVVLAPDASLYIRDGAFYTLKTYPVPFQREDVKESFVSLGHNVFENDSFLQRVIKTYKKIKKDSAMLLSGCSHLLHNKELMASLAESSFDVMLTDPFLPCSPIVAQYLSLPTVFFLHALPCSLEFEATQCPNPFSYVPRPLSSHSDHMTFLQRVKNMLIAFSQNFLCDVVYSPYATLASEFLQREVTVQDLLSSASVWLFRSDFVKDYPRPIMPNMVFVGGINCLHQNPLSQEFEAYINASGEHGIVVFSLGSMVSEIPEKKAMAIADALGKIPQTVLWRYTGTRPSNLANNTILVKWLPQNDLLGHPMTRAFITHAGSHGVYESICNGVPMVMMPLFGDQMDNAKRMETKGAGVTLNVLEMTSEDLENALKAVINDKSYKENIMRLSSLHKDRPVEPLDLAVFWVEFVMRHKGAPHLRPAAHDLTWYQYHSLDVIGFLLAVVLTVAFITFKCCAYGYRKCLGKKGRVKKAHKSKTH

[1] = pharmacokinetics in specific populations (population pharmacokinetics); parameters: species or system human; conditions: in vivo

With CC(C)NC(=O)COc1cccc(-c2nc(Nc3ccc4[nH]ncc4c3)c3ccccc3n2)c1 [Belumosudil, 2-{3-[4-(1H-indazol-5-ylamino)-2-quinazolinyl]phenoxy}-N-(propan-2-yl) acetamide] the “inhibition of UGT1A1” value (UGT1A1) was “inhibitor”, the “effect of age and body weight on pharmacokinetics (population pharmacokinetic data)” value [1] was “no clinically meaningful effect” and the “pharmacokinetic differences by age, sex, weight, mild to moderate renal impairment” value [1] was “No clinically significant differences”.
